Measured values as given in patent publication US5157019A, “Serine protease inhibitors” (Monsanto Company, priority 1991, dated 1992).
Like-named read-outs stand apart in the source and are kept apart here. Ends that are not written are not given here.

Experiments:
Format in all cases: biochemical
Cathepsin G = target: T1, Cathepsin G (Homo sapiens, UniProt P08311); assay: Cathepsin G assay (Suc-Ala-Ala-Pro-Phe-pNA, 410 nm); conditions: for inhibition at 100 µM / Cathepsin G % inhibition: 100 μM peptide (Tables VI, VIII); for inhibition at 200 µM / Cathepsin G Inhibition: 200 μM peptide (head of Table IX)
T1 construct: purchased Elastin Products Company (EPC) SG-45
T1 sequence (P08311 21-255): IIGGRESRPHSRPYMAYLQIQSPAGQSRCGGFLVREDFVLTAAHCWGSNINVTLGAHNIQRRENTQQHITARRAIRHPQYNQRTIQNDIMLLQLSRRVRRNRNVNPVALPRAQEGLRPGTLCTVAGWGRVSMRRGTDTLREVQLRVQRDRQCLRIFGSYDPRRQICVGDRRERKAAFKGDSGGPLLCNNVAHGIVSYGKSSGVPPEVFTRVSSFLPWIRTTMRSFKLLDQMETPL
Procedure: Reference: Elastin Products Company (EPC) technical data sheet, cathepsin G, No. SG-45.
Method: Spectrophotometric rate determination
A) Buffer; 0.1M Tris, pH 7.5 at 25° C.
B) Substrate; 60 mM Suc-Ala-Ala-Pro-Phe-pNA obtained from Sigma Chemical Company. Solution prepared by dissolving 50 mg substrate in 1.3 ml of 1-methyl-2-pyrrolidinone. Stored at 5° C.
C) Peptide Inhibitors; 200 μM HCl salt. Depending on peptide solubility, dissolved in buffer or DMSO and then buffer added for a final concentration of 10% DMSO.
D) Enzyme; Cathepsin G, EPC SG-45, lot 85117 used for all assays, 0.0077 mg protein per mg solid determined by supplier by Bradford method. Enzyme was dissolved in buffer at a concentration of approx. 5 mg/ml solid. Solution stored on ice, used within 2 hours.
Pipetted the following into semi-micro quartz cuvettes: 0.3 ml buffer, 0.15 ml peptide solution and 0.5 ml of substrate solution. Equilibrate for 5 min. at 25° C., then add 0.05 ml of enzyme solution and monitor the release of pNA spectrophotometrically at 410 nm for at least 3 minutes. The controls contain either 0.45 ml of buffer or 20% DMSO in buffer (for a final concentration of 10% DMSO).
The rate (O.D./min) is obtained as an average over 3 minutes. [formula]

Factor D = target: T2, Factor D (Homo sapiens, UniProt P00746); assay: Factor D assay by inhibition of fluid phase Factor B activation
T2 construct: prepared from pooled human plasma; from tissue; host or cells: pooled human plasma
T2 sequence (P00746 26-253): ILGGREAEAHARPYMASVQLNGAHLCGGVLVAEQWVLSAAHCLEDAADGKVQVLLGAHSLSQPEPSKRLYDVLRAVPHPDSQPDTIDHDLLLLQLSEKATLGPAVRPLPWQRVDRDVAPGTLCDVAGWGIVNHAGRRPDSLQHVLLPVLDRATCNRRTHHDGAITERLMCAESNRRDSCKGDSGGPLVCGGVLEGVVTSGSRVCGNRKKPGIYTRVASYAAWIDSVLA
Procedure: Highly purified C3, C4, Factor D, Factor B, and C1s were prepared from pooled human plasma. Factors B and C4 were radiolabeled by periodate oxidation of sialic acid residues, followed by reduction with tritiated sodium borohydride. In a representative experiment, a solution of 1.2 mg of factor B in 1.8 ml of PBS was treated with 70 μl of 0.1M NaIO4. After 10 min incubation on ice, excess reagent was removed by filtration over "SEPHADEX®" which is a matrix for gel chromatography (1.0 cm×20 cm). To the protein pool was added 60 μl of NaB[^3 H]4 solution and incubated for 30 min on ice. Labeled protein was separated from excess reagent by desalting or dialysis. Human C4 was radiolabeled in the same manner. Radiolabeled proteins were stored at -70° C. in PBS. The specific radioactivity of ^3 H factor B was about 10,000 CPM/μg and that of ^3 H-C4 was 5,000 CPM/μg.
The effect of the peptides on Factor D-dependent cleavage of factor B was studied by incubating 3.5 μg of Factor B, 1.5 μg of C3(H2 O) and 0.2 μl of Factor D at 37° C. for 60 min in Mg-PBS containing different concentrations of inhibitor. Uncleaved Factor B and its fragments, Ba and Bb, were first separated by SDS-PAGE and analyzed as described above. The percent cleavage of the reaction was calculated as follows: [formula]
B=radioactivity (CPM) of uncleaved factor B
Bb=radioactivity (CPM) of fragment Bb
Ba=radioactivity (CPM) of fragment Ba
Electrophoresis was carried out under reducing conditions in the Laemmli system using slab gel of 8% polyacrylamide. The gels were stained and destained (Fairbanks et al. Biochemistry (1971) 10:2606).
The percent inhibition of the reaction was calculated according to the following relationship: [formula]
A: % cleavage without inhibitor
B: % cleavage with inhibitor
The concentration inducing 50% inhibition was obtained by plotting the percent inhibition on a probability graph (National Blank Book Co., No. 12-083) on the ordinate and the log of the inhibitor concentration on the abscissa. From this graph, a 50% inhibition concentration IC50 was obtained and this value was employed to express the activity.

Plasmin = Plasmin (Homo sapiens, UniProt P00747); assay: Plasmin assay (S2251); conditions: 200 μM peptide
Chain of Plasmin (P00747 581-810 limits assumed): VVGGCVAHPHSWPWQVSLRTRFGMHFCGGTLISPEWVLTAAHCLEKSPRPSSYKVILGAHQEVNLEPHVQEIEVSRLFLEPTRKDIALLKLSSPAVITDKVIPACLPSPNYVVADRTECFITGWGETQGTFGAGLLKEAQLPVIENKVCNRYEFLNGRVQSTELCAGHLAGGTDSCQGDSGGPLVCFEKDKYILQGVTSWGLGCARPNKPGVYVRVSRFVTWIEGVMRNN
Chain of Plasmin (P00747 97-580 partner limits assumed): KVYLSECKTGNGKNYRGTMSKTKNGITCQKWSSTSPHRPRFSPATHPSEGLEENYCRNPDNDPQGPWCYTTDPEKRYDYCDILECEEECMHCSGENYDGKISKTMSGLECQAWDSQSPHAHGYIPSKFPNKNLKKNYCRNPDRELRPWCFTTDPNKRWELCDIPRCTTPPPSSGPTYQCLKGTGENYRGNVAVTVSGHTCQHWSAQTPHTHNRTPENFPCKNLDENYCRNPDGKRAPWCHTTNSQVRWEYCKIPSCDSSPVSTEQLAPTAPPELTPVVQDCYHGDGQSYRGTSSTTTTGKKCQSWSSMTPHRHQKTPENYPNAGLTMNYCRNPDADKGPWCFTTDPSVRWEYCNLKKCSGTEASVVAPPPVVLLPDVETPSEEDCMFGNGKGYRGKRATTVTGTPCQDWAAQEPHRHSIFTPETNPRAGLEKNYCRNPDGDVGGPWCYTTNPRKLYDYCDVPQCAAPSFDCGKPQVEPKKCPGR
Procedure: Substrate H-D-Val-Leu-Lys-pNA·HCl (S2251, Kabi), 10 mM in deionized water; may be frozen for future use.
Buffer 50 mM Tris·HCl, pH 7.4 containing 0.01% Tween 80
Inhibitor 400 μM in deionized water
Enzyme Plasmin; 0.5 U/ml in buffer (Cat #P-4895, Sigma Chemical Co., St. Louis, Mo.)
Mix 220 μL buffer, 200 μL deionized water (control) or inhibitor solution and 40 μL substrate. Incubate for 2 min at 37° C. Transfer 230 μL to a microcuvette, add 40 μL of enzyme, mix, and measure rate spectrophotometrically at 405 nm for about 5 min. Inhibition (%) is calculated in the same manner as in previous assays.

Plasma Kallikrein = target: T3, Plasma Kallikrein (Homo sapiens, UniProt P03952); assay: Plasma kallikrein assay (Chromozym PK); conditions: for Kallikrein % inhibition: 50 μM peptide; for inhibition at 100 µM: 100 μM peptide
T3 construct: purchased Sigma K-3126
T3 sequence (P03952 20-638): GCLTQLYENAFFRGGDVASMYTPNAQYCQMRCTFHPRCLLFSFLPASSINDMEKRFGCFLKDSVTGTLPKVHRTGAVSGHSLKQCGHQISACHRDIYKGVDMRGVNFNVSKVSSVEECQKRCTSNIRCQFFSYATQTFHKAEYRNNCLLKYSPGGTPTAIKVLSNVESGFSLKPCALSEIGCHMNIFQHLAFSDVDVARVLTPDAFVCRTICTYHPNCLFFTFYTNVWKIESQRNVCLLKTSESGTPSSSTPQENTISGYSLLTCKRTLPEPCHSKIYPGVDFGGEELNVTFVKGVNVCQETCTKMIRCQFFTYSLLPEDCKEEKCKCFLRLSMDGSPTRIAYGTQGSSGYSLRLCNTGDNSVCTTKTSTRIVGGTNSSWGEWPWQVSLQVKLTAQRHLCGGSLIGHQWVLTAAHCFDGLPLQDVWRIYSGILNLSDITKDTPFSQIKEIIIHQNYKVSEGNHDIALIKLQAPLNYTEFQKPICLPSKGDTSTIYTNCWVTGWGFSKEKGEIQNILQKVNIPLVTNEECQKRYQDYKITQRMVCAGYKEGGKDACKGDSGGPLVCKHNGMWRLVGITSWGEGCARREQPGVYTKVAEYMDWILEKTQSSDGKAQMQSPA
Procedure: Buffer 150 mM Tris·HCl, pH 8.0
Substrate Benzyl-Pro-Phe-Arg-pNa (Chromozym PK, Boeringer Mannheim), 10 mM in deionized water.
Enzyme Plasma Kallikrein (Sigma, K-3126), 0.0312 μ/ml. Used undiluted.
Inhibitor Dissolved at desired concentrations in deionized water or DMSO plus deionized water depending on solubility.
4. Incubate mixture for 5 min at 25° C.
6. Measure rate spectrophotometrically at […] at 25° C.
2. Add appropriate volume of peptide solution
3. Add adjusted volume of buffer compensating for volume of peptide solution.
4. Add an adjusted volume of DMSO to maintain a final amount of 25 μl in the assay
5. Incubate mixture for 5 min at 25° C.
7. Measure rate spectrophotometrically at […] at 25° C.
Inhibition (%) is calculated in the same manner as in previous assays.

[1] = Table X, μM concentration at which protease was inhibited 50%, read-out: IC50 D
[2] = Tables VI and VIII, % 50, read-out: Factor D, μM concentration listed for 50 % inhibition

| Molecule | inhibition at 100 µM (Cathepsin G) | inhibition at 200 µM (Cathepsin G) | inhibition at 200 µM (Factor D; 200 μM peptide) | inhibition at 200 µM (Plasmin) | IC50 (Factor D; [1]) | IC50 (Factor D; [2]) | Cathepsin G % inhibition (Cathepsin G) | Cathepsin G Inhibition (Cathepsin G) | Kallikrein % inhibition (Plasma Kallikrein) | Plasmin % inhibition (Plasmin) | inhibition at 100 µM (Plasma Kallikrein) |
| --- | --- | --- | --- | --- | --- | --- | --- | --- | --- | --- | --- |
| CC[C@H](C)[C@H](NC(=O)[C@H](CC(C)C)NC(=O)[C@H](Cc1ccccc1)NC(=O)[C@@H](NC(=O)[C@H](Cc1ccccc1)NC(=O)[C@@H]1CCCN1C(=O)[C@H](CCCCN)NC(=O)[C@H](CC(N)=O)NC(=O)[C@H](Cc1ccccc1)NC(=O)[C@H](CCCCN)NC(=O)[C@@H](NC(=O)[C@H](CCC(=O)O)NC(=O)[C@@H]1CCCN1C(=O)[C@@H]1CCCN1)C(C)C)C(C)C)C(=O)O [Peptide 1] | 0% | 0% | 0% | 37% |  |  |  |  |  |  |  |
| AGRSLNPNRVTFKANRPFLVFIREVPLNTIIFLGRVANP [Peptide 27] |  | 52% |  |  | < 25 µM |  |  |  |  |  |  |
| IVRFNRPFLLII [Peptide 3] | 32% | 32% |  | 33% |  | 111 µM |  |  |  |  |  |
| IVRFNRPFLLIIVPTDTQNIFFLSKVTNPSKPR [Peptide 22] |  |  |  |  |  | 4 µM | 46% | 46% | 58% | 56% |  |
| PNRVTFKANRPFLVFI [Peptide 2] | 13% | 13% |  | 33% |  | 53 µM |  |  |  |  | 21% |
| RVTFKANRPFLVFIREVPLNTIIFLGRVANP [Peptide 21] | 38% | 38% |  | 53% | < 8 µM | < 8 µM |  |  |  |  | 55% |
| VKFNKPFVFLLIEQNTKSPLFLGKVVNPTQK [Peptide 20] |  |  |  |  |  | 16 µM | 0% | 0% | 0% | 43% |  |
